Entries after “also recorded” stand apart in the source; their conditions may differ. Where two headings read alike, the source gives them in different places.

For test [1], the system named is MC3T3 E1 osteoblastic cells. The test is described as follows: MC3T3 E1 osteoblastic cell assay (cell number / proliferation). The test is classed as cell-based. The text has this: FIGS. 1(A)-1(F) are graphical depictions of screening of fatty acid derivatives identified in brain for proliferative activity in MC3T3 E1 osteoblastic cells. (A), oleoyl-serine (HU-639); (B), palmitoyl-serine; (C), arachidonoyl-serine (HU-362); (D), arachidonoyl-ethanolamide; (E), palmitoyl-ethanolamide; (F), 2-arachidonoylglycerol. Data are mean±SE obtained in 3 culture wells per condition.
FIG. 9 represents methylated oleoyl-serine (HU-639) derivatives α-methyl oleoyl serine (HU-671) and 2-methyl-oleoyl serine (HU-681)) stimulation of MC3T3 E1 osteoblastic cell number at concentration 10- to 100-fold lower than HU-639. Data are mean±SE obtained in 3 culture wells per condition. *, ANOVA, p<0.05 vs. ligand-free control (Cntl).
(§1) Several lipid compounds present in the brain stimulated the proliferation of MC3T3 E1 osteoblast-like cells in vitro (FIG. 1). […] The HU-639 mitogenic effect was confirmed measuring BrdU incorporation in the MC3T3 E1 cells and in primary calvarial osteoblasts (FIG. 4A). […] Typical of some osteoblast mitogenic agents [Miguel et al, 2005], the dose-response curves representing oleoyl-serine (HU-639) activity in culture are bell shaped, with the peak stimulation of cell number followed by reversal of the effect to baseline levels (FIGS. 4A, 4B).
The oleoyl-serine derivatives α-methyl oleoyl serine (HU-671) and 2-methyl-oleoyl serine (HU-681) were tested in the MC3T3 E1 osteoblastic cell assay, HU-671 and HU-681 stimulated cell number with respective peak effects at 10^−12 M and 10^−13 M as compared to 10^−11 M of the parent HU-639 molecule (FIG. 9).

Test [2] concerns primary calvarial osteoblasts. Nature of the test: BrdU incorporation in primary calvarial osteoblasts. The class given is cell-based.
Excerpt: as §1

In test [3] the test system is ovariectomized (OVX) mice. The test is described as follows: Ovariectomy (OVX) mouse model of osteoporosis, microCT and histomorphometry of distal femoral metaphysis. The test is classed as in vivo. The method, then:
FIG. 6 oleoyl-serine (HU-639) rescues ovariectomy (OVX)-induced trabecular bone loss in mouse distal femoral metaphysis. Mice were OVXed or sham-OVXed and left untreated for 6 weeks to allow for bone loss. Thereafter, OVXed mice were treated by i.p. administration of oleoyl-serine (HU-639), 5 mg/Kg/day for 6 weeks and subjected to qualitative and quantitative analysis by microcomputed tomography. BV/TV, trabecular bone volume density. VEH, ethanol/emulphor/saline solvent. Data are mean±SE obtained in 6-8 mice per condition.
VEH, ethanol/emulphore/saline solvent. Histomorphometric analysis based on vital labeling of newly formed bone by calcein. Data are mean±SE obtained in 6-8 mice per condition. *, ANOVA, p<0.05 vs. Sham-OVX.
VEH, ethanol/emulphore/saline solvent. Osteoclast counts were based on osteoclast specific staining with tartrate-resistant acid phosphatase. Data are mean±SE obtained in 6-8 mice per condition. *, ANOVA, p<0.05 vs. Sham-OVX and OVX/VEH.
Based on the in vitro screening, the in vivo skeletal activity of oleoyl-serine (HU-639) in an ovariectomy (removal of ovaries; OVX) mouse model, the most widely used animal model for osteoporosis, was analyzed. Using this experimental system for testing bone anabolic activity, OVXed mice are left untreated to allow for bone loss to occur, followed by a treatment period intended for reversal of the bone loss [Alexander et al, 2001]. […] To further elucidate the process leading to the oleoyl-serine (HU-639) rescue of OVX-induced bone loss, the same mice were subjected to an analysis of bone formation and resorption by computerized histomorphometry (HM).

Test [4] relates to RANKL expression. The test is described as follows: RT-PCR analysis of RANKL expression in bone marrow-derived primary stromal cells. The class given is cell-based. From the text:
(§2) (A), number of intact osteoclasts with the use of oleoyl-serine (HU-639); (B), number of apoptotic osteoclasts; (C), representative photomicrograph of culture oleoyl-serine (HU-639)-free control culture; (D), representative photomicrograph of culture treated with 10^−10 M oleoyl-serine (HU-639); (E), immunoblot analysis of Erk1/2 phosphorylation in preosteoclast-like RAW 264.7 cells. (F), RT-PCR analysis of RANKL and OPG expression in bone marrow-derived primary stromal cells. Quantitative data are mean±SE obtained in 3 culture wells per condition. Arrows indicate, apoptotic osteoclasts; *, ANOVA, p<0.05 vs. oleoyl-serine (HU-639)-free control (Cntl).
(§3) This inhibition is likely to have a restraining effect on osteoclast survival [Kim et al, 2009].

The test system of test [5] is Erk1/2 phosphorylation. Nature of the test: Immunoblot analysis of Erk1/2 phosphorylation in preosteoclast-like RAW 264.7 cells. The test is classed as cell-based.
Excerpt: as §2, §3
(A western blot detects proteins with antibodies after separation by electrophoresis.)

Test [6] relates to osteoclasts. Nature of the test: Osteoclast survival in ex vivo culture of bone marrow-derived monocytes with M-CSF and RANKL. The class given is cell-based, mouse. The following applies: 4 days with M-CSF and RANKL.
Excerpt: as §2, §3

The test system of test [7] is Erk1/2 phosphorylation. The test is described as follows: Erk1/2 phosphorylation in osteoblasts. The test is classed as cell-based.
Excerpt: (§4) FIGS. 4(A)-4(E) represents signaling of oleoyl-serine (HU-639) in osteoblasts. *, ANOVA, p<0.05 vs. oleoyl-serine (HU-639)-free control (Cntl).
as §1

The subject of test [8] is MC3T3 E1 cells. The test is described as follows: BrdU incorporation in MC3T3 E1 cells. The test is classed as cell-based.
Excerpt: as §1
In general terms: Incorporation of labelled thymidine or its analogues reports DNA synthesis.

Test [9] deals with osteoblasts. The test is described as follows: Blockade of oleoyl-serine (HU-639) mitogenic activity in osteoblasts. The class given is cell-based. The settings on record: MEK inhibitor, inhibition of Erk1/2 phosphorylation.
Excerpt: as §4, §1

Regarding `CCCCCCCC/C=C\CCCCCCCC(=O)NC(C)(CO)C(=O)O` (racemic) [HU-671, N-oleoly α-methyl-DL-serine], the “concentration of peak effect on cell number” value (“concentration of peak effect” below) in test [1] is listed as 10^−12 M.

Regarding `CCCCCCCC/C=C\CCCCCCCC(=O)N[C@@H](CO)C(=O)O` [HU-639, N-Oleoyl L-Serine], the “mitogenic effect by BrdU incorporation” value in [2] is recorded as “confirmed”. Further, the “reversal of bone loss compared with parathyroid hormone (1-34)” value in [3] (comparison with literature [Alexander et al, 2001]) is reported as “greater than the reversal of bone volumetric density by parathyroid hormone (1-34)”. In addition, the “bone resorption, osteoclast counts (TRAP staining)” value in test [3] (distal femoral metaphyseal trabecular bone) is on record as “decreasing of osteoclast number; also recorded: markedly inhibited bone resorption”. Further, the “mineral appositional rate (MAR)” value in test [3] (histomorphometry, calcein labeling) is “stimulated mineral appositional rate”. Moreover, the “overall trabecular bone formation” value in test [3] (histomorphometry, compared to sham- and vehicle-treated OVXed controls) is listed as “stimulation of trabecular bone formation; also recorded: stimulation of overall bone formation”. Moreover, the “difference in trabecular bone volume density (BV/TV) vs controls” value in [3] (vs vehicle treated OVXed controls (so in the source)) is reported as “statistically insignificant”. The RANKL expression result in test [4] is recorded as “inhibits RANKL expression”. Moreover, in test [1], the “concentration of peak effect” value was 10^−11 M and the “osteoblastic proliferation activity / potency” value was “highest potency”. The cell number entry in test [1] (at 10^−11 M concentration) is reported as “more than doubling cell number”. Further, in [1] (listed as oleoyl serine), the “osteoblastic proliferation activity / potency” value is reported as “considerably more potent”. In addition, the Erk phosphorylation entry in test [5] is reported as “reduced Erk phosphorylation, mainly p42”. For the same molecule, in test [6], the osteoclast apoptosis entry is “stimulating osteoclast apoptosis” and the “osteoclast survival (number of intact osteoclasts)” value is on record as “inhibition of osteoclast survival; also recorded: inhibits osteoclast survival”. Moreover, the Erk1/2 phosphorylation result in test [7] is “stimulates Erk1/2 phosphorylation”. The “shape of dose-response curves in culture” value in test [8] (FIGS. 4A, 4B, peak stimulation of cell number followed by reversal to baseline) is given as “bell shaped”. For the same molecule, the “mitogenic effect by BrdU incorporation” value in test [8] (MC3T3 E1 cells) was “confirmed”.

`CCCCCCCC/C=C\CCCCCCC(C)C(=O)N[C@@H](CO)C(=O)O` (stereo partly drawn) [HU-681, 2-Methyl Oleoyl-L-Serine]: the “concentration of peak effect” value in test [1] is on record as 10^−13 M.

With `COc1cccc(-c2cc(=O)c3ccccc3o2)c1N` [PD98059], the “blockade of oleoyl-serine (HU-639) mitogenic activity” value in test [9] is “blocks the oleoyl-serine (HU-639) mitogenic activity dose-dependently”.

On to `CCCCC/C=C\C/C=C\C/C=C\C/C=C\CCCC(=O)NCCO` [anandamide, arachidonoyl ethanolamide, reference compound], for which the “osteoblastic proliferation activity / potency” value in [1] is reported as “some osteoblastic proliferation activity”.

Consider `CCCCC/C=C\C/C=C\C/C=C\C/C=C\CCCC(=O)N[C@@H](CO)C(=O)O` [arachidonoyl serine, N-arachidonoyl-serine, reference compound], for which the “osteoblastic proliferation activity / potency” value in test [1] is recorded as “some osteoblastic proliferation activity”.

Regarding `CCCCCCCCCCCCCCCC(=O)NCCO` [palmitoyl ethanolamide, reference compound], in test [1], the “osteoblastic proliferation activity / potency” value is reported as “some osteoblastic proliferation activity”.

Values taken from patent publication US8198327B2, “Fatty acid amides and uses thereof” (Yissum Research Development Company of the Hebrew …, priority 2008, dated 2012).
